Measured values taken from PubChem BioAssay AID2053 (NMMLSC, 2009).

Target: GTPase HRas (Homo sapiens) (UniProt P01112)
Test: blockade of Bodipy-GTP loading onto wild-type Ras – biochemical, oxadiazole analogs, multiplex bead flow cytometry, SAR follow-up (AID 2053)
Settings: GST-Ras beads, Bodipy-FL-GTP binding, Ki calculated from EC50

GTPase HRas (Homo sapiens), sequence (P01112 whole entry, looked up): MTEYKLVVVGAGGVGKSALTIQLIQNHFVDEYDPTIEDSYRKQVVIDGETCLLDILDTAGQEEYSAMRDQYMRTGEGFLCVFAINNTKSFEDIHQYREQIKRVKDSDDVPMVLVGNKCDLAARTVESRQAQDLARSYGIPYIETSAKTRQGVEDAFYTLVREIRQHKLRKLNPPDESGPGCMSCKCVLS

Ki [nM]	SMILES
10	COc1ccc(-c2noc(CCC(=O)N3CCN(c4ccccc4F)CC3)n2)cc1
290	COc1ccc(-c2noc(CCC(=O)N3CCN(c4ccccc4Cl)CC3)n2)cc1
10	Cc1ccc(C)c(N2CCN(C(=O)CCc3nc(-c4ccccc4Br)no3)CC2)c1
140	Cc1ccc(C)c(N2CCN(C(=O)CCc3nc(-c4ccccc4)no3)CC2)c1
270	COc1ccc(-c2noc(CCC(=O)N3CCN(c4cc(C)ccc4C)CC3)n2)cc1
290	Cc1ccc(C)c(N2CCN(C(=O)CCc3nc(-c4ccc(Br)cc4)no3)CC2)c1
230	COc1cccc(-c2noc(CCC(=O)N3CCN(c4cc(C)ccc4C)CC3)n2)c1
